According to patent US20220315908A1, “NOVEL GARDNERELLA ENDOLYSINS AND USES THEREOF” (priority 2019, published 2022):
Values after ≈ are worked out from the molar mass of the structure shown.

System: G. swidsinskii (Gv_23)
Assay: MIC and MBC microbroth dilution
Assay type: cell-based, Gardnerella swidsinskii
Conditions: for MIC / MBC: Gardnerella swidsinskii; for MIC: 48 h
Protocol: One of the main deficiencies in the treatment of BV is the high rate of recurrence in many women, which leads to repeated administration of antibiotics and concomitant destabilization of the microbiome and other side effects. The minimal inhibitory concentration (MIC) and minimal bactericidal concentration (MBC) on Gardnerella cells of the strains also used for the endolysin activity assays were then measured using the method described in Reference Example 6 and 7. […] Essentially, Gardnerella suspensions at 2.5×10^7 CFU/ml were incubated with the concentration of antibiotics as indicated and incubated for 48 h at 37° C. under anaerobic conditions. […] OD(610) was measured at the beginning and the end of the experiment. At the end of the experiment, 2 ul of each reaction mix was spotted on agar to determine the MBC.
The conditions under which MIC and MBC were measured are more rigorous than the standard.
Example 7—Activity assays of a representative (H2B10) of domain swapped endolysins on the growth in suspension of different Gardnerella strains. […] The conditions under which MBC was measured are more rigorous than the standard. […] In general, it is known, that antibiotics only insufficiently eradicate the Gardnerella biofilm, a hallmark of BV, which is one suspected reason for the reported very high recurrence rate of BV. Despite leaving residual viable biofilm, antibiotics wipe parts of the beneficial organisms of the vaginal microbiome which then opens an ecological niche for other pathogens, e.g. fungi.
Bacteria were plated from cryo stock on BD Choc Agar plates (Gardnerella) and incubated at 37° C. for 48 h under anaerobic conditions. Colonies were scraped from the plate, resuspended in Hardy Broth or NYC-III-HS-pH 5.0, and the suspension adjusted to OD (610 or 620 nm as indicated) 0.05. It has to be noted that two Tecan Microplate readers, having respectively a 610 nm or 620 nm filter, have been used interchangeably in the experiments. Although it doesn't make any difference for the experiments, the exact wavelength used is specified in each example. Antibiotics were prepared as 20× stocks for each of the required final concentrations. 95 μl of cell suspension was mixed with 5 μl antibiotics dilution in a 384-well plate. OD (610-620 as indicated) at the start of the reaction was measured, then the plate was incubated at 37° C. for 48 h under anaerobic conditions. After that, the OD (610-620 as indicated) was measured again for MIC determination, where MIC was defined as the lowest concentration of antibiotic where the OD (610-620 as indicated) was not above the level measured at the beginning of the experiment. After measuring OD, 2 μl of each well were spotted on a NYC-III+HS Agar plate. The plates were then incubated for further 48 h at 37° C. under anaerobic conditions. After incubation, cell growth on each spot was evaluated, and the MBC defined as the lowest concentration of antibiotics where no bacteria grew on the plate. The experiments were conducted in triplicate for each condition. In the second round of MIC and MBC experiments with antibiotics the Gardnerella cell suspension was adjusted to the McFarland standard 0.5 (approximately OD (610) 0.07) and then diluted 1:75 according to the CLSI (Clinical and Laboratory Standards Institute) standards. Antibiotics were prepared according to the CLSI standards and 50 μl of cell suspension was mixed in a 96-well plate with 50 μl antibiotics. Otherwise the MIC and MBC was determined as described above.

MIC (first round: […]10^7 CFU/ml, Hardy broth, 384-well, 48 h 37° C. anaerobic): > 128 µg/mL | MIC (second round: 1×10^5-1×10^6 CFU/ml (CLSI), NYC-III broth, 96-well, 48 h anaerobic): 32 µg/mL (≈ 187 µM) | resistance class of MIC, Metronidazole (first round): R (>=32 μg/mi for Metronidazole) | resistance class printed with MIC, Metronidazole (second round): R (>=32 μg/mi for Metronidazole)
SMILES: Cc1ncc([N+](=O)[O-])n1CCO [Metronidazole]
MBC (second round: 1×10^5-1×10^6 CFU/ml (CLSI), NYC-III broth, 96-well): > 128 µg/mL | MBC (first round: 2.5×10^7 CFU/ml, minimal concentration fully eradicating the suspension): > 128 µg/mL | resistance class given with MBC, Metronidazole (second round): R (>=32 μg/mi for Metronidazole)
